# Source: patent US5192507A (priority 1991, dated 1993)
# Several values for one entry are separate records, joined by “and”; a condition that tells them apart may be missing. Identical values can stand only once.
# Assays:
# [1] = system: acetylcholine receptor (AChR); assay type: binding, Electrophorus electricus
# opiate receptor (OpR) = assay type: binding, rat
# [2] = system: acetylcholine receptor (AChR); assay type: binding, Electrophorus electricus; remark: listed apart in the source
compound,measurement,setting,value
CCCCCCCCCC[N+](C)(C)CCCS(=O)(=O)[O-] [Zwittergent ™ 3-10],% Activity Increase (AChR membrane activity),[1],13%
CN1CC[C@]23CCCC[C@H]2[C@H]1Cc1ccc(O)cc13 [Levorphanol],Δ% (difference between resistance changes of test and control chips),opiate receptor (OpR),10%
same,ΔK.OMEGA. (change in resistance across the biosensor circuit),opiate receptor (OpR),-160
CCCCCCCC[N+](C)(C)CCCS(=O)(=O)[O-] [Zwittergent ™ 3-08],% Activity Increase (AChR membrane activity),[1],55%
Triton ™ X-100,increase in retention of binding activity of AChR,[1],more than 90%
OC[C@H]1OC(O)[C@H](O)[C@@H](O)[C@@H]1O (stereo partly shown) [Glucose],% Change with respect to control sensor,[2],3% and 0% and 6% and 5%
same,change in resistance between control and AChR sensors (in words),[2],no change
